Measured values from ChEMBL document CHEMBL1201862, “PubChem BioAssay data set” (2004).
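1) Cells in 96-well plates. 2) Compound, 48 h, 5 concentrations. 3) Linear interpolation between surrounding doses. 4) Unreached endpoint = highest concentration. GI50 is the concentration that inhibits growth by half.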 Active and inactive are the calls of the source. Cut-off read from the data, not from the text of the source: active = GI50 up to about 1.1 µM and inactive = higher.

How the values were obtained:
Experiment in all cases: NCI-60 cell line screen, 48 h
HOP-62 = system: HOP-62
OVCAR-8 = system: OVCAR-8
UO-31 = system: UO-31
TK-10 = system: TK-10
OVCAR-3 = system: OVCAR-3
NCI-H226 = system: NCI-H226
OVCAR-5 = system: OVCAR-5
786-0 = system: 786-0
NCI-H23 = system: NCI-H23
SF-295 = system: SF-295
COLO 205 = system: COLO 205
IGROV-1 = system: IGROV-1
SF-539 = system: SF-539
SNB-75 = system: SNB-75
RPMI-8226 = system: RPMI-8226
NCI-H522 = system: NCI-H522
LOX IMVI = system: LOX IMVI

Structure (SMILES): CCCCCC(=O)N[C@H]1CCc2cc(OC)c(OC)c(OC)c2-c2ccc(SC)c(=O)cc21
- GI50 (HOP-62): 0.032 µM (active)
- GI50 (OVCAR-8): 0.0253 µM (active)
- GI50 (UO-31): 0.0308 µM (active)
- GI50 (TK-10): 0.521 µM (active)
- GI50 (OVCAR-3): 0.0153 µM (active)
- GI50 (NCI-H226): < 0.01 µM (active)
- GI50 (OVCAR-5): 47.3 µM (inactive)
- GI50 (786-0): 0.0335 µM (active)
- GI50 (NCI-H23): < 0.01 µM (active)
- GI50 (SF-295): 0.0155 µM (active)
- GI50 (COLO 205): 0.0122 µM (active)
- GI50 (IGROV-1): 0.0241 µM (active)
- GI50 (SF-539): 0.0158 µM (active)
- GI50 (SNB-75): 0.0195 µM (active)
- GI50 (RPMI-8226): 0.0181 µM (active)

Structure (SMILES): CC(=O)O[C@H]1CC[C@@]2(C)C(=CC[C@@H]3C2CC[C@]2(C)Nc4nc5ccccc5cc4CC32)C1 (stereo partly specified)
- GI50 (HOP-62): 13.3 µM (inactive)
- GI50 (NCI-H522): 11.4 µM (inactive)
- GI50 (OVCAR-8): 3.13 µM (inactive)
- GI50 (UO-31): 4.92 µM (inactive)
- GI50 (TK-10): 5.31 µM (inactive)
- GI50 (OVCAR-3): 2.5 µM (inactive)
- GI50 (NCI-H226): 3.05 µM (inactive)
- GI50 (OVCAR-5): 13.9 µM (inactive)
- GI50 (786-0): 3.28 µM (inactive)
- GI50 (NCI-H23): 12.4 µM (inactive)
- GI50 (SF-295): 3.78 µM (inactive)
- GI50 (COLO 205): 7.66 µM (inactive)
- GI50 (IGROV-1): 11.7 µM (inactive)
- GI50 (SF-539): 3.78 µM (inactive)
- GI50 (SNB-75): 2.65 µM (inactive)
- GI50 (RPMI-8226): 8.65 µM (inactive)

Structure (SMILES): O=C(/C=C/c1ccccc1O)c1ccccc1Cl
- GI50 (HOP-62): 75.7 µM (inactive)
- GI50 (NCI-H522): 31.3 µM (inactive)
- GI50 (OVCAR-8): 58.6 µM (inactive)
- GI50 (UO-31): 52.4 µM (inactive)
- GI50 (TK-10): 90.4 µM (inactive)
- GI50 (LOX IMVI): 24.9 µM (inactive)
- GI50 (OVCAR-3): 38.1 µM (inactive)
- GI50 (NCI-H226): > 100 µM (inactive)
- GI50 (OVCAR-5): > 100 µM (inactive)
- GI50 (786-0): 92.5 µM (inactive)
- GI50 (NCI-H23): 21.1 µM (inactive)
- GI50 (SF-295): > 100 µM (inactive)
- GI50 (COLO 205): 33 µM (inactive)
- GI50 (IGROV-1): 32.6 µM (inactive)
- GI50 (SF-539): 44.5 µM (inactive)
- GI50 (SNB-75): 14.8 µM (inactive)

Structure (SMILES): Cc1[nH]c2ccccc2c1C1CC(=O)NC1=O (stereo unspecified)
- GI50 (HOP-62): > 100 µM (inactive)
- GI50 (OVCAR-8): > 100 µM (inactive)
- GI50 (UO-31): > 100 µM (inactive)
- GI50 (TK-10): > 100 µM (inactive)
- GI50 (OVCAR-3): > 100 µM (inactive)
- GI50 (NCI-H226): > 100 µM (inactive)
- GI50 (OVCAR-5): > 100 µM (inactive)
- GI50 (786-0): > 100 µM (inactive)
- GI50 (NCI-H23): > 100 µM (inactive)
- GI50 (SF-295): > 100 µM (inactive)
- GI50 (IGROV-1): > 100 µM (inactive)
- GI50 (SF-539): > 100 µM (inactive)
- GI50 (SNB-75): > 100 µM (inactive)
- GI50 (RPMI-8226): > 100 µM (inactive)

Structure (SMILES): CCc1cccc(C(C)CC)c1/N=C(/NC(=O)c1ccccc1C(=O)N/C(=N/c1c(CC)cccc1C(C)CC)SC)SC (stereo unspecified)
- GI50 (HOP-62): 31.1 µM (inactive)
- GI50 (NCI-H522): 28.2 µM (inactive)
- GI50 (OVCAR-8): 59.2 µM (inactive)
- GI50 (UO-31): 30.6 µM (inactive)
- GI50 (TK-10): 30.8 µM (inactive)
- GI50 (LOX IMVI): 31.3 µM (inactive)
- GI50 (OVCAR-3): 36.6 µM (inactive)
- GI50 (NCI-H226): 17.7 µM (inactive)
- GI50 (OVCAR-5): 60.1 µM (inactive)
- GI50 (786-0): 49.3 µM (inactive)
- GI50 (NCI-H23): 31.9 µM (inactive)
- GI50 (SF-295): 37.4 µM (inactive)
- GI50 (COLO 205): 40.6 µM (inactive)
- GI50 (IGROV-1): 38.7 µM (inactive)
- GI50 (SF-539): 26.5 µM (inactive)
- GI50 (RPMI-8226): 30.1 µM (inactive)

Structure (SMILES): CC(C)(c1ccccc1)c1ccc(Oc2ccc3c(c2)-c2nc-3nc3[nH]c(nc4nc(nc5[nH]c(n2)c2ccc(Oc6ccc(C(C)(C)c7ccccc7)cc6)cc52)-c2cc(Oc5ccc(C(C)(C)c6ccccc6)cc5)ccc2-4)c2ccc(Oc4ccc(C(C)(C)c5ccccc5)cc4)cc32)cc1
- GI50 (HOP-62): 64.6 µM (inactive)
- GI50 (NCI-H522): 86.9 µM (inactive)
- GI50 (OVCAR-8): > 100 µM (inactive)
- GI50 (UO-31): > 100 µM (inactive)
- GI50 (TK-10): 80.2 µM (inactive)
- GI50 (LOX IMVI): > 100 µM (inactive)
- GI50 (OVCAR-5): > 100 µM (inactive)
- GI50 (786-0): > 100 µM (inactive)
- GI50 (NCI-H23): > 100 µM (inactive)
- GI50 (COLO 205): > 100 µM (inactive)
- GI50 (IGROV-1): > 100 µM (inactive)
- GI50 (SF-539): 35 µM (inactive)
- GI50 (SNB-75): 27.8 µM (inactive)
- GI50 (RPMI-8226): > 100 µM (inactive)
